Reference: PMC10160035, “Mechanism-based and computational modeling of hydrogen sulfide biogenesis inhibition: interfacial inhibition” (Scientific Reports, 2023)

Experiments:
CSE = conditions: cited from earlier work
[1] = molecular target: T1, recombinant human CSE (cystathionine γ-lyase), tag-less (Homo sapiens, UniProt P32929); test: D-penicillamine binding followed by PLP fluorescence quenching; conditions: PLP fluorescence at 495 nm, 100 mM HEPES pH 7.4, 20 °C, n = 3 ± SD; read-out: Kd (dissociation constant between tag-less CSE and D-pen)
T1 construct: 6xHis (TEV-cleavable) (N, cleaved yes); made in house; host or cells: E. coli One Shot BL-21 Star (DE3)
Description: The addition of D-pen induced a quenching of fluorescence. […] The black line represents the fit to the experimental data with a four-parameter logistic equation to obtain the dissociation binding constant of D-pen for CSE.
Fluorescence emission spectra were recorded 5 min after D-pen addition.

[2] = molecular target: T2, human CSE (cystathionine γ-lyase) (Homo sapiens, UniProt P32929)
[3] = system: recombinant CSE (GST-CSE); conditions: 1 mM Cys, methylene blue assay, 10 min pre-incubation with CSE; read-out: IC50 towards H2S production; cited from earlier work
[4] = system: homogenated mouse aorta samples; design: method as in Brancaleone et al. (34); conditions: ref Brancaleone et al. (34), read-out: IC50 ex cellulo; cited from earlier work
[5] = molecular target: T2, human CSE (cystathionine γ-lyase); test: biochemical
[6] = molecular target: T2, human CSE (cystathionine γ-lyase); test: lead acetate assay of H2S production from cysteine; format: biochemical; design: 6xHis (TEV-cleavable) (N, cleaved yes); made in house; host or cells: E. coli One Shot BL-21 Star (DE3)
Description: Production of H2S from cysteine by CSE was measured spectrophotometrically by the lead acetate assay as previously described. […] Then, the formation of lead sulfide resulting from the reactivity of H2S with lead acetate was continuously monitored at 390 nm. The half inhibitory concentration (IC50) value was obtained by plotting the relative activity of CSE (A, in per cent) as a function of the concentration of D-pen and by fitting the data with Eq. (4), where ∆A is the maximal effect of D-pen on the activity of CSE and n is the Hillslope that characterizes the slope of the curve at its midpoint.4 A=ΔA/1+[D-Pen]/IC50^n
Next, 40 μg of CSE was added to the assay mixture to initiate the reaction, which was followed at 390 nm. The molar extinction coefficient for lead sulfide previously determined was then used to obtain vH2S[24]. The CSE-D-penicillamine dissociation constants for competitive and uncompetitive inhibition were calculated by plotting vH2S as a function of cysteine concentration and using Eq. (5).5 vH2S=Vmax×[Cys]/KM×1+[D-Pen]/Kic+[Cys]×1+[D-Pen]/Kiu

[7] = molecular target: the molecule itself; test: SEC; HiLoad 16/600 Superdex 200, 0.5 mL/min, 100 mM HEPES pH 7.4, 150 mM NaCl; oligomeric state from the estimated apparent molecular mass

T2 sequence (P32929 whole entry): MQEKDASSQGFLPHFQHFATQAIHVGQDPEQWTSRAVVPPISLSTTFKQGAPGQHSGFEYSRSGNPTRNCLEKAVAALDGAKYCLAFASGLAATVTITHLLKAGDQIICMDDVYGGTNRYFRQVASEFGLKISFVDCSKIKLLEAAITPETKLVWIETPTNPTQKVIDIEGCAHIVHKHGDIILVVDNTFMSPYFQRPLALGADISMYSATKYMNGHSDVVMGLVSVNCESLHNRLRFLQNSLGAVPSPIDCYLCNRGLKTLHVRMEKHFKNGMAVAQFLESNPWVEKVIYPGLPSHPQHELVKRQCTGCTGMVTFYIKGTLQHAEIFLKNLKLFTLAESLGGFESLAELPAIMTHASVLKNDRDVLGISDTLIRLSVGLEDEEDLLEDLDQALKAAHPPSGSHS
T1 sequence (P32929 whole entry): as above

C#CCNC(=O)[C@@H]1CSC(=O)N1 [(R)-2-oxo-N-(prop-2-yn-1-yl)thiazolidine-4-carboxamide]
inhibitory mode towards CSE (CSE): substrate inhibitors

CC(C)(S)[C@@H](N)C(=O)O [D-pen, D-penicillamine]
Kd [1]: 15 ± 4.6 mM | Kiu (uncompetitive inhibition), α,γ-elimination of cystathionine ([2]; 0.1–3 mM cystathionine, 100 mM HEPES pH 7.4, 37 °C): 8.55 ± 0.89 mM | mode of inhibition of cystathionine cleavage ([2]; Lineweaver–Burk analysis): mixed inhibition mechanism | IC50 [3]: 270 µM | IC50 [4]: 44 µM | Ki [5]: 2.54 ± 0.65 mM | IC50 ([6]; 1 mM Cys, 200 mM HEPES pH 7.4, 37 °C, no pre-incubation with enzyme, read-out: IC50 towards H2S production): 2.04 ± 0.13 mM | Kiu (dissociation constant for uncompetitive inhibition), H2S biogenesis from Cys ([6]; 1–10 mM cysteine, 100 mM HEPES pH 7.4, 37 °C): 8.60 ± 1.22 mM | Ki ([6]; 1–10 mM cysteine, 100 mM HEPES pH 7.4, 37 °C, read-out: Kic (dissociation constant for competitive inhibition), H2S biogenesis from Cys): 1.82 ± 0.35 mM | mode of inhibition of H2S biogenesis ([6]; Lineweaver–Burk analysis, varying Cys): mixed inhibition mechanism | effect of pre-incubation time on inhibition potency ([6]; inhibition followed as a function of pre-incubating time): not a slow-binding inhibitor

N[C@@H](CSCCCC(=O)O)C(=O)O [S-3-carboxypropyl-L-cysteine]
inhibitory mode towards CSE (CSE): suicide inhibitors

NCCO/C=C/[C@H](N)C(=O)O [aminoethoxyvinyglycine]
inhibitory mode towards CSE (CSE): slow and tight binding inhibitor

O=C(O)C1=CC(=C(c2ccc(O)c(C(=O)O)c2)c2ccc(O)c(C(=O)O)c2)C=CC1=O [aurintricarboxylic acid]
inhibitory mode towards CSE (CSE): competitive cofactor

C#CCC(N)C(=O)O (stereo not shown) [propargylglycine]
inhibitory mode towards CSE (CSE): suicide inhibitors

N[C@H](C(=O)O)C(F)(F)F [trifluoroalanine]
inhibitory mode towards CSE (CSE): suicide inhibitors

B1: human recombinant cystathionine γ-lyase with N-terminal 6xHis-tag (enzyme)
chain: MQEKDASSQGFLPHFQHFATQAIHVGQDPEQWTSRAVVPPISLSTTFKQGAPGQHSGFEYSRSGNPTRNCLEKAVAALDGAKYCLAFASGLAATVTITHLLKAGDQIICMDDVYGGTNRYFRQVASEFGLKISFVDCSKIKLLEAAITPETKLVWIETPTNPTQKVIDIEGCAHIVHKHGDIILVVDNTFMSPYFQRPLALGADISMYSATKYMNGHSDVVMGLVSVNCESLHNRLRFLQNSLGAVPSPIDCYLCNRGLKTLHVRMEKHFKNGMAVAQFLESNPWVEKVIYPGLPSHPQHELVKRQCTGCTGMVTFYIKGTLQHAEIFLKNLKLFTLAESLGGFESLAELPAIMTHASVLKNDRDVLGISDTLIRLSVGLEDEEDLLEDLDQALKAAHPPSG
modifications: pyridoxal 5'-phosphate as internal aldimine with Lys212
notes: cystathionine γ-lyase (CSE), human; also called CSE; hCSE; source: E. coli One Shot BL-21 Star (DE3), purified (His-Trap HP, HiLoad 16/600 Superdex 200); not shown: His6, N-terminal, kept
stoichiometry N [7]: 4

B2: tag-less human recombinant cystathionine γ-lyase (enzyme)
chain: B1 chain
modifications: pyridoxal 5'-phosphate as internal aldimine with Lys212
notes: cystathionine γ-lyase (CSE), human; tag removed with TEV protease; also called tag-less CSE; CSE; not shown: His6, N-terminal, cleaved
stoichiometry N [7]: 4
